Measurements as given in patent US20240270762A1, “PENICILLIN-BINDING PROTEIN INHIBITORS” (priority 2021, published 2024).
Converted amounts (≈) assume the structure as drawn.

Experiments:
[1] = target: T1, PBP3 from Pseudomonas aeruginosa (PAO1) (Pseudomonas aeruginosa, UniProt G3XD46); assay: Bocillin-FL fluorescence polarization competition binding, P. aeruginosa PBP3; conditions: Binding affinity to P. aeruginosa PBP3; fluorescence polarization competition binding assay using Bocillin-FL; read-out: P. aeruginosa PBP3 Potency
T1 construct: made in house
Method in brief: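 Purified PBPs pre-incubated with inhibitor (E. coli PBP3 1.5 μM, 30 min; P. aeruginosa PBP3 0.75 μM, A. baumannii PBP1a 1 μM and PBP3 0.2 μM, 15 min), then Bocillin-FL 0.1 μM (0.05 μM for PBP1a) added; FP read up to 60 min. EC50 = concentration halving bound Bocillin-FL.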

A. baumannii PBP1a = target: T2, A. baumannii PBP1a (Acinetobacter baumannii, UniProt A0ABX6CK30); assay: Bocillin-FL competition binding via gel filtration, A. baumannii PBP1a; conditions: competition binding assay using Bocillin-FL via gel filtration; read-out: A. baumannii PBP1a Potency
T2 sequence (A0ABX6CK30 1-851): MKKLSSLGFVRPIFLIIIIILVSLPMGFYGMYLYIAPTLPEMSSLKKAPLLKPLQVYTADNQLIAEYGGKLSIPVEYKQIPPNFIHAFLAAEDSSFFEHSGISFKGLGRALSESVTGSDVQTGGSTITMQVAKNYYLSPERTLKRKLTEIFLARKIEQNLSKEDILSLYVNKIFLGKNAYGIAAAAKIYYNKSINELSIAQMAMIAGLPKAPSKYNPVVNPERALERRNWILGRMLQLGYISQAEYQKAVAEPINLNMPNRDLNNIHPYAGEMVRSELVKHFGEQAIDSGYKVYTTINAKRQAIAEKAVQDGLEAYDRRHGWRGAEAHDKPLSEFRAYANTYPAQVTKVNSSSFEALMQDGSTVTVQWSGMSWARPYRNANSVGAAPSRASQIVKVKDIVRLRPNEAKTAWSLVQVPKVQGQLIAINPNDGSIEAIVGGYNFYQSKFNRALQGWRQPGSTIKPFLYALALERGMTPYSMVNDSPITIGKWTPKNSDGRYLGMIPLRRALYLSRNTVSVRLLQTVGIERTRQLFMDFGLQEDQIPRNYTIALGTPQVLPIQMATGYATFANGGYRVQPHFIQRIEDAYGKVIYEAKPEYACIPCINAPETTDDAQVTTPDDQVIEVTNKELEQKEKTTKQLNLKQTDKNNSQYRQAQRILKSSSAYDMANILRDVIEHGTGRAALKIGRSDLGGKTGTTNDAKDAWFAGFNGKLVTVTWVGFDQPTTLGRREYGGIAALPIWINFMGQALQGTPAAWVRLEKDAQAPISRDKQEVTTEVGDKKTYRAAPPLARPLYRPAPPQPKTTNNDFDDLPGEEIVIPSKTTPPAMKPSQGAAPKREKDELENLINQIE
Method in brief: (§1)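 Enzyme pre-incubated with increasing inhibitor concentrations, then Bocillin-FL added for 15 min further incubation. Bocillin-FL-bound PBP separated by gel filtration and fluorescence read. EC50 from fitting fraction PBP bound vs inhibitor concentration to a Hill-type equation (ymin, ymax, n).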

A. baumannii PBP2 = A. baumannii PBP2 (Acinetobacter baumannii, UniProt D0C8Z9); assay: Bocillin-FL competition binding via gel filtration, A. baumannii PBP2
Method in brief: as §1

P. aeruginosa CDC-0095 = assay: microbe, parasite or virus in culture; format: cell-based; conditions: Pseudomonas aeruginosa, CDC0095, read-out: Minimum inhibitory concentration, P. aeruginosa CDC-0095
A. baumannii CDC-0033 = assay: microbe, parasite or virus in culture; format: cell-based; conditions: Acinetobacter baumannii, CDC0033, read-out: MIC, A. baumannii CDC-0033
A. baumannii CDC-0045 = assay: microbe, parasite or virus in culture; format: cell-based; conditions: Acinetobacter baumannii, CDC0045, read-out: MIC, A. baumannii CDC-0045

Chain of A. baumannii PBP2 (D0C8Z9 whole entry): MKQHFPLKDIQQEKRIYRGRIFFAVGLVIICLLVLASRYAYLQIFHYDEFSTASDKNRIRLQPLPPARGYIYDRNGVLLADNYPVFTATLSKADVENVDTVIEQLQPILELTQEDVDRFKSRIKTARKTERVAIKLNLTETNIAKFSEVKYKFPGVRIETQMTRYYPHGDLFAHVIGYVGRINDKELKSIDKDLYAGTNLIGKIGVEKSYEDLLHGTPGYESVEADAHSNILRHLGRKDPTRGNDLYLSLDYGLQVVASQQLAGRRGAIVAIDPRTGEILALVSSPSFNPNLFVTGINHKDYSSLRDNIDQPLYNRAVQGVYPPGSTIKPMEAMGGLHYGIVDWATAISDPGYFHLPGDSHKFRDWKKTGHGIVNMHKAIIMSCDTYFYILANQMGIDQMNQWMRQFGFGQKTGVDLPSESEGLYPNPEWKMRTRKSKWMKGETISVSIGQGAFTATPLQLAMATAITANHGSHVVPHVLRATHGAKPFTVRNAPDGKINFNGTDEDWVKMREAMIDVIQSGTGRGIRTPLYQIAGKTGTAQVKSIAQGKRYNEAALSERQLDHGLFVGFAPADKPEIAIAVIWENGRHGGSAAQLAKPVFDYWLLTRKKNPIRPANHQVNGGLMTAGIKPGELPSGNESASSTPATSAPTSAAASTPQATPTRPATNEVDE
T1 sequence (G3XD46 whole entry): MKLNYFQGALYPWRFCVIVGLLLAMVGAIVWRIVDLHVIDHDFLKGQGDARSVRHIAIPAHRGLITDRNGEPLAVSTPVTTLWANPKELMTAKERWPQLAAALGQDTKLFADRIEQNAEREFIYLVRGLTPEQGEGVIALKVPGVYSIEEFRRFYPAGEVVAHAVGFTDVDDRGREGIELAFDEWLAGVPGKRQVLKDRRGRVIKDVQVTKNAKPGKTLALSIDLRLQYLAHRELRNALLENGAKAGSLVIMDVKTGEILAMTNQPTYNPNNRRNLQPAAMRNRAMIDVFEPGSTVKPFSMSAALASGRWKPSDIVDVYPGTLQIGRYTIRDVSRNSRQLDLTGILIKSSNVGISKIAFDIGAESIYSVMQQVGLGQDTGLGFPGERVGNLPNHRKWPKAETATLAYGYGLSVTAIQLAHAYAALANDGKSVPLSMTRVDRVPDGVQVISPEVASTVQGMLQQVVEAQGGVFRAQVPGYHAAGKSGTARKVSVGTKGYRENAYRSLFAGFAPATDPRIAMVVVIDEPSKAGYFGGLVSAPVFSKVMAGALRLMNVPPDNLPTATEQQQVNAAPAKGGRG

| Structure (SMILES) | IC50 [1] [µM] | EC50 (A. baumannii PBP1a) [µM] | EC50 (A. baumannii PBP2) [µM] | MIC (P. aeruginosa CDC-0095) [µg/mL] | MIC (A. baumannii CDC-0033) [µg/mL] | MIC (A. baumannii CDC-0045) [µg/mL] |
| --- | --- | --- | --- | --- | --- | --- |
| O=C(NCCCN1CCN(C(=O)NC(C(=O)N[C@H]2Cc3ccc(F)c(C(=O)O)c3OB2O)c2cc(F)c(O)c(O)c2Cl)C(=O)C1=O)c1cc(O)ccc1F (stereo partly drawn) [Example 407, (3R)-3-(2-(2-chloro-5-fluoro-3,4-dihydroxyphenyl)-2-(4-(3-(2-fluoro-5-hydroxybenzamido)propyl)-2,3-dioxopiperazine-1-carboxamido)acetamido)-7-fluoro-2-hydroxy-3,4-dihydro-2H-benzo[e][1,2]oxaborinine-8-carboxylic acid] | < 10 | < 10 | 10 to 50 | 2 to 4 (≈ 2.57 to 5.14 µM) | 2 to 4 (≈ 2.57 to 5.14 µM) | < 1 |
| O=C(NCCCN1CCN(C(=O)NC(C(=O)N[C@H]2Cc3ccc(F)c(C(=O)O)c3OB2O)c2cc(F)c(O)c(O)c2Cl)C(=O)C1=O)c1cc(O)ccc1Cl (stereo partly drawn) [Example 408, (3R)-3-(2-(2-chloro-5-fluoro-3,4-dihydroxyphenyl)-2-(4-(3-(2-chloro-5-hydroxybenzamido)propyl)-2,3-dioxopiperazine-1-carboxamido)acetamido)-7-fluoro-2-hydroxy-3,4-dihydro-2H-benzo[e][1,2]oxaborinine-8-carboxylic acid] | < 10 | < 10 | < 10 | < 1 | 2 to 4 (≈ 2.52 to 5.04 µM) | < 1 |
| O=C(NCCCN1CCN(C(=O)NC(C(=O)N[C@H]2Cc3ccc(F)c(C(=O)O)c3OB2O)c2cc(F)c(O)c(O)c2Cl)C(=O)C1=O)c1ccc(F)c(O)c1 (stereo partly drawn) [Example 409, (3R)-3-(2-(2-chloro-5-fluoro-3,4-dihydroxyphenyl)-2-(4-(3-(4-fluoro-3-hydroxybenzamido)propyl)-2,3-dioxopiperazine-1-carboxamido)acetamido)-7-fluoro-2-hydroxy-3,4-dihydro-2H-benzo[e][1,2]oxaborinine-8-carboxylic acid] | < 10 | < 10 | < 10 | 2 to 4 (≈ 2.57 to 5.14 µM) | 2 to 4 (≈ 2.57 to 5.14 µM) | < 1 |
| O=C(NCCCN1CCN(C(=O)NC(C(=O)N[C@H]2Cc3ccc(F)c(C(=O)O)c3OB2O)c2cc(F)c(O)c(O)c2Cl)C(=O)C1=O)c1cc(O)cc(F)c1 (stereo partly drawn) [Example 410, (3R)-3-(2-(2-chloro-5-fluoro-3,4-dihydroxyphenyl)-2-(4-(3-(3-fluoro-5-hydroxybenzamido)propyl)-2,3-dioxopiperazine-1-carboxamido)acetamido)-7-fluoro-2-hydroxy-3,4-dihydro-2H-benzo[e][1,2]oxaborinine-8-carboxylic acid] | < 10 | < 10 | < 10 | 2 to 4 (≈ 2.57 to 5.14 µM) | 2 to 4 (≈ 2.57 to 5.14 µM) | < 1 |
| O=C(NCCCN1CCN(C(=O)NC(C(=O)N[C@H]2Cc3ccc(F)c(C(=O)O)c3OB2O)c2cc(F)c(O)c(O)c2Cl)C(=O)C1=O)c1ccc(F)c(O)c1F (stereo partly drawn) [Example 411, (3R)-3-(2-(2-chloro-5-fluoro-3,4-dihydroxyphenyl)-2-(4-(3-(2,4-difluoro-3-hydroxybenzamido)propyl)-2,3-dioxopiperazine-1-carboxamido)acetamido)-7-fluoro-2-hydroxy-3,4-dihydro-2H-benzo[e][1,2]oxaborinine-8-carboxylic acid] | < 10 | < 10 | < 10 | < 1 | 8 to 16 (≈ 10.1 to 20.1 µM) | 2 to 4 (≈ 2.51 to 5.03 µM) |
| O=C(NCCCN1CCN(C(=O)NC(C(=O)N[C@H]2Cc3ccc(F)c(C(=O)O)c3OB2O)c2cc(F)c(O)c(O)c2Cl)C(=O)C1=O)c1ccc(F)c(O)c1Cl (stereo partly drawn) [Example 412, (3R)-3-(2-(4-(3-(2-chloro-4-fluoro-3-hydroxybenzamido)propyl)-2,3-dioxopiperazine-1-carboxamido)-2-(2-chloro-5-fluoro-3,4-dihydroxyphenyl)acetamido)-7-fluoro-2-hydroxy-3,4-dihydro-2H-benzo[e][1,2]oxaborinine-8-carboxylic acid] | < 10 | < 10 | < 10 | 2 to 4 (≈ 2.46 to 4.92 µM) | 8 to 16 (≈ 9.85 to 19.7 µM) | 2 to 4 (≈ 2.46 to 4.92 µM) |
| O=C(NCCCN1CCN(C(=O)NC(C(=O)N[C@H]2Cc3ccc(F)c(C(=O)O)c3OB2O)c2cc(F)c(O)c(O)c2Cl)C(=O)C1=O)c1c(F)ccc(O)c1F (stereo partly drawn) [Example 413, (3R)-3-(2-(2-chloro-5-fluoro-3,4-dihydroxyphenyl)-2-(4-(3-(2,6-difluoro-3-hydroxybenzamido)propyl)-2,3-dioxopiperazine-1-carboxamido)acetamido)-7-fluoro-2-hydroxy-3,4-dihydro-2H-benzo[e][1,2]oxaborinine-8-carboxylic acid] | < 10 | < 10 | 10 to 50 | < 1 | 2 to 4 (≈ 2.51 to 5.03 µM) | 2 to 4 (≈ 2.51 to 5.03 µM) |
| O=C(NCCCN1CCN(C(=O)NC(C(=O)N[C@H]2Cc3ccc(F)c(C(=O)O)c3OB2O)c2cc(F)c(O)c(O)c2Cl)C(=O)C1=O)c1c(F)ccc(O)c1Cl (stereo partly drawn) [Example 414, (3R)-3-(2-(2-chloro-5-fluoro-3,4-dihydroxyphenyl)-2-(4-(3-(2-chloro-6-fluoro-3-hydroxybenzamido)propyl)-2,3-dioxopiperazine-1-carboxamido)acetamido)-7-fluoro-2-hydroxy-3,4-dihydro-2H-benzo[e][1,2]oxaborinine-8-carboxylic acid] | < 10 | < 10 | < 10 | < 1 | 2 to 4 (≈ 2.46 to 4.92 µM) | 2 to 4 (≈ 2.46 to 4.92 µM) |
| O=C(NCCCN1CCN(C(=O)NC(C(=O)N[C@H]2Cc3ccc(F)c(C(=O)O)c3OB2O)c2cc(F)c(O)c(O)c2Cl)C(=O)C1=O)c1cc(O)c(F)c(O)c1F (stereo partly drawn) [Example 415, (3R)-3-(2-(2-chloro-5-fluoro-3,4-dihydroxyphenyl)-2-(4-(3-(2,4-difluoro-3,5-dihydroxybenzamido)propyl)-2,3-dioxopiperazine-1-carboxamido)acetamido)-7-fluoro-2-hydroxy-3,4-dihydro-2H-benzo[e][1,2]oxaborinine-8-carboxylic acid] | < 10 | < 10 | 10 to 50 | < 1 | 2 to 4 (≈ 2.46 to 4.93 µM) | 2 to 4 (≈ 2.46 to 4.93 µM) |
| O=C(NCCCN1CCN(C(=O)NC(C(=O)N[C@H]2Cc3ccc(F)c(C(=O)O)c3OB2O)c2cc(F)c(O)c(O)c2Cl)C(=O)C1=O)c1cc(O)c(F)c(O)c1 (stereo partly drawn) [Example 416, (3R)-3-(2-(2-chloro-5-fluoro-3,4-dihydroxyphenyl)-2-(4-(3-(4-fluoro-3,5-dihydroxybenzamido)propyl)-2,3-dioxopiperazine-1-carboxamido)acetamido)-7-fluoro-2-hydroxy-3,4-dihydro-2H-benzo[e][1,2]oxaborinine-8-carboxylic acid] | < 10 | < 10 | < 10 | < 1 | 2 to 4 (≈ 2.52 to 5.04 µM) | < 1 |
| O=C(NCCCN1CCN(C(=O)NC(C(=O)N[C@H]2Cc3ccc(F)c(C(=O)O)c3OB2O)c2cc(F)c(O)c(O)c2Cl)C(=O)C1=O)c1ccc(O)c(F)c1Cl (stereo partly drawn) [Example 418, (3R)-3-(2-(4-(3-(2-chloro-3-fluoro-4-hydroxybenzamido)propyl)-2,3-dioxopiperazine-1-carboxamido)-2-(2-chloro-5-fluoro-3,4-dihydroxyphenyl)acetamido)-7-fluoro-2-hydroxy-3,4-dihydro-2H-benzo[e][1,2]oxaborinine-8-carboxylic acid] | < 10 | < 10 | < 10 | 2 to 4 (≈ 2.46 to 4.92 µM) | < 1 | < 1 |
